Measured values from US9394264B2 (Receptos, Inc., priority 2009, dated 2016).

target: S1P1/EDG1 (Homo sapiens, UniProt P21453); assay: S1P1 CRE-bla CHOK1 reporter assay (inhibition of Forskolin induced cAMP); format: cell-based; settings: agonist activity range, S1P1 CRE-bla CHOK1 cells, 2 μM Forskolin; read-out: S1P1 ACTIVITY
Source text: A mammalian expression plasmid containing S1P1/EDG1 cloned into pcDNA3.1 was purchased from Missouri S&T cDNA Resource Centre. The nucleotide and amino acid sequence of human S1P1/EDG1 are published in Hla and Maciag (J Biol Chem, 265(1990), 9308-9313). S1P1/pcDNA3.1 was transfected into the CRE-bla CHO K1 (Invitrogen) cell line, and stable single cell clones were selected using standard techniques. Expression of functional S1P1/EDG1 receptor was confirmed by cell surface FACS with a S1P1 antibody (R&D Systems, clone 218713) and S1P-mediated inhibition of Forskolin induced cAMP.
Cells were seeded into 384-well black wall/clear bottom plates at 10^4 cells/well/19.5 μl assay media (DMEM-phenol free, 0.5% charcoal/dextran stripped serum, 2 mM glutamine, 0.1 mM NEAA, 1 mM Na-Pyruvate, 25 mM Hepes) and incubated for 18 hrs at 37° C. in 5% CO2. Dose response curves (10-point) were generated in 10 mM Hepes, 0.1% Pluronic F127, in the presence of Forskolin. Cells were treated with 0.5 μl compound in the presence of 2 μM Forskolin for 4 hrs at 37° C. The FRET-based β-lactamase fluorescent substrate (LiveBLAzer™-FRET B/G Loading Kit CC4-AM; Invitrogen) was prepared according to manufacturer's directions, and incubated with cells for 2 hrs at room temperature. Plates were read at Ex:410/Em:458 and Ex:410/Em:522, and the response ratio determined. Data was analyzed by non-linear regression to determine the EC50 for inhibition of Forskolin induced cAMP.

Sequence of S1P1/EDG1 (P21453 whole entry): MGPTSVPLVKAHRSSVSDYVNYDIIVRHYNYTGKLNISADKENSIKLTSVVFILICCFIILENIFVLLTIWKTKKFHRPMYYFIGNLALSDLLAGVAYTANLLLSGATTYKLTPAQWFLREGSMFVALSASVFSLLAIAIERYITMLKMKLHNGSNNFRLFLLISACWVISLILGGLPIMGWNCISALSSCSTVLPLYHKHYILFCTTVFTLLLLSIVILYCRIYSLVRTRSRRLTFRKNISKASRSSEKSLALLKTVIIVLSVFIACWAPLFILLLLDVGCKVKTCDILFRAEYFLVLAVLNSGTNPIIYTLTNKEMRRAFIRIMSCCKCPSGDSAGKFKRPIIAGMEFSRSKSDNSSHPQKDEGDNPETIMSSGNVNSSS

**Q.** `CC(=O)N[C@@H]1CCCc2c(-c3noc(-c4ccc(OC(C)C)c(C#N)c4)n3)cccc21` [Compound 21, (R)-N-(5-(5-(3-cyano-4-isopropoxyphenyl)-1,2,4-oxadiazol-3-yl)-1,2,3,4-tetrahydronaphthalen-1-yl)acetamide] was tested. Which EC50 did it give?
**A.** 0.05 to 0.5 nM

**Q.** For `CC(=O)N[C@H]1CCCc2c(-c3noc(-c4ccc(OC(C)C)c(C#N)c4)n3)cccc21` [Compound 22, (S)-N-(5-(5-(3-cyano-4-isopropoxyphenyl)-1,2,4-oxadiazol-3-yl)-1,2,3,4-tetrahydronaphthalen-1-yl)acetamide], which EC50 is on record?
**A.** 0.05 to 0.5 nM

**Q.** How did the EC50 turn out when `COCC(=O)N[C@@H]1CCCc2c(-c3noc(-c4ccc(OC(C)C)c(C#N)c4)n3)cccc21` [Compound 23] was run?
**A.** 0.5 to 5 nM

**Q.** How did the EC50 turn out when `COCC(=O)N[C@H]1CCCc2c(-c3noc(-c4ccc(OC(C)C)c(C#N)c4)n3)cccc21` [Compound 24] was run?
**A.** 0.05 to 0.5 nM

**Q.** Which EC50 does the source give for `CC(C)Oc1ccc(-c2nc(-c3cccc4c3CCC[C@H]4NC(=O)CN(C)C)no2)cc1C#N` [Compound 25] here?
**A.** 0.5 to 5 nM

**Q.** Which EC50 does the source give for `CC(C)Oc1ccc(-c2nc(-c3cccc4c3CCC[C@H]4NS(N)(=O)=O)no2)cc1C#N` [Compound 26, (R)-N-(5-(5-(3-cyano-4-isopropoxyphenyl)-1,2,4-oxadiazol-3-yl)-1,2,3,4-tetrahydronaphthalen-1-yl)sulfamide] here?
**A.** 0.05 to 0.5 nM

**Q.** `CC(C)Oc1ccc(-c2nc(-c3cccc4c3CCC[C@@H]4NS(N)(=O)=O)no2)cc1C#N` [Compound 27, (S)-N-(5-(5-(3-cyano-4-isopropoxyphenyl)-1,2,4-oxadiazol-3-yl)-1,2,3,4-tetrahydronaphthalen-1-yl)sulfamide] was tested. Which EC50 did it give?
**A.** < 0.05 nM

**Q.** `CC(C)Oc1ccc(-c2nc(-c3cccc4c3CCC[C@H]4NS(C)(=O)=O)no2)cc1C#N` [Compound 28, (R)-N-(5-(5-(3-cyano-4-isopropoxyphenyl)-1,2,4-oxadiazol-3-yl)-1,2,3,4-tetrahydronaphthalen-1-yl)methanesulfonamide] was tested. Which EC50 did it give?
**A.** 0.05 to 0.5 nM

**Q.** With `CC(C)Oc1ccc(-c2nc(-c3cccc4c3CCC[C@H]4NS(=O)(=O)C3CC3)no2)cc1C#N` [Compound 30] as the compound, how does the EC50 read?
**A.** 0.05 to 0.5 nM

**Q.** Which EC50 does the source give for `CC(C)Oc1ccc(-c2nc(-c3cccc4c3CCC[C@@H]4NS(=O)(=O)C3CC3)no2)cc1C#N` [Compound 31] here?
**A.** 0.5 to 5 nM

**Q.** For `COCCS(=O)(=O)N[C@@H]1CCCc2c(-c3noc(-c4ccc(OC(C)C)c(C#N)c4)n3)cccc21` [Compound 32, (R)-N-(5-(5-(3-cyano-4-isopropoxyphenyl)-1,2,4-oxadiazol-3-yl)-1,2,3,4-tetrahydronaphthalen-1-yl)-2-methoxyethanesulfonamide], which EC50 is on record?
**A.** 0.05 to 0.5 nM

**Q.** `CC(C)Oc1ccc(-c2nc(-c3cccc4c3CCC[C@H]4NS(=O)(=O)CC(=O)O)no2)cc1C#N` [Compound 34, (R)-2-(N-(5-(5-(3-cyano-4-isopropoxyphenyl)-1,2,4-oxadiazol-3-yl)-1,2,3,4-tetrahydronaphthalen-1-yl)sulfamoyl)acetic acid] was tested. Which EC50 did it give?
**A.** < 0.05 nM

**Q.** How did the EC50 turn out when `CC(C)Oc1ccc(-c2nc(-c3cccc4c3CCC[C@@H]4NS(=O)(=O)CC(=O)O)no2)cc1C#N` [Compound 35, (S)-2-(N-(5-(5-(3-cyano-4-isopropoxyphenyl)-1,2,4-oxadiazol-3-yl)-1,2,3,4-tetrahydronaphthalen-1-yl)sulfamoyl)acetic acid] was run?
**A.** < 0.05 nM

**Q.** For `CC(C)Oc1ccc(-c2nc(-c3cccc4c3CCC[C@@H]4NS(=O)(=O)CCO)no2)cc1C#N` [Compound 36, (S)-N-(5-(5-(3-cyano-4-isopropoxyphenyl)-1,2,4-oxadiazol-3-yl)-1,2,3,4-tetrahydronaphthalen-1-yl)-2-hydroxyethanesulfonamide], which EC50 is on record?
**A.** < 0.05 nM

**Q.** For `CC(C)Oc1ccc(-c2nc(-c3cccc4c3CCC[C@@H]4NS(=O)(=O)CC(N)=O)no2)cc1C#N` [Compound 38], which EC50 is on record?
**A.** < 0.05 nM

**Q.** How did the EC50 turn out when `CC(C)Oc1ccc(-c2nc(-c3cccc4c3CCC[C@H]4NS(=O)(=O)CC(N)=O)no2)cc1C#N` [Compound 39] was run?
**A.** < 0.05 nM

**Q.** For `CC(C)Oc1ccc(-c2nc(-c3cccc4c3CCC[C@H]4NS(=O)(=O)CC(=O)N(C)C)no2)cc1C#N` [Compound 40, (R)-2-(N-(5-(5-(3-cyano-4-isopropoxyphenyl)-1,2,4-oxadiazol-3-yl)-1,2,3,4-tetrahydronaphthalen-1-yl)sulfamoyl)-N,N-dimethylacetamide], which EC50 is on record?
**A.** < 0.05 nM

**Q.** How did the EC50 turn out when `CC(C)Oc1ccc(-c2nc(-c3cccc4c3CCC[C@@H]4NS(=O)(=O)CC(=O)N(C)C)no2)cc1C#N` [Compound 41, (S)-2-(N-(5-(5-(3-cyano-4-isopropoxyphenyl)-1,2,4-oxadiazol-3-yl)-1,2,3,4-tetrahydronaphthalen-1-yl)sulfamoyl)-N,N-dimethylacetamide] was run?
**A.** < 0.05 nM

**Q.** For `CC(C)Oc1ccc(-c2nc(-c3cccc4c3CCC[C@@H]4NS(=O)(=O)CC(=O)N3CCC3)no2)cc1C#N` [Compound 42], which EC50 is on record?
**A.** < 0.05 nM

**Q.** `CC(C)Oc1ccc(-c2nc(-c3cccc4c3CCC[C@H]4NS(=O)(=O)CC(=O)N3CCC3)no2)cc1C#N` [Compound 43] was tested. Which EC50 did it give?
**A.** < 0.05 nM

**Q.** How did the EC50 turn out when `CC(C)Oc1ccc(-c2nc(-c3cccc4c3CCC[C@H]4NS(=O)(=O)CCN(C)C)no2)cc1C#N` [Compound 44, (R)-N-(5-(5-(3-cyano-4-isopropoxyphenyl)-1,2,4-oxadiazol-3-yl)-1,2,3,4-tetrahydronaphthalen-1-yl)-2-(dimethylamino)ethanesulfonamide] was run?
**A.** 0.05 to 0.5 nM

**Q.** `CC(C)Oc1ccc(-c2nc(-c3cccc4c3CCC[C@@H]4NS(=O)(=O)CCN(C)C)no2)cc1C#N` [Compound 45, (S)-N-(5-(5-(3-cyano-4-isopropoxyphenyl)-1,2,4-oxadiazol-3-yl)-1,2,3,4-tetrahydronaphthalen-1-yl)-2-(dimethylamino) ethanesulfonamide] was tested. Which EC50 did it give?
**A.** 0.5 to 5 nM

**Q.** Which EC50 does the source give for `CC(C)Oc1ccc(-c2nc(-c3cccc4c3CCC[C@@H]4NS(=O)(=O)CCN3CC[C@@H](O)C3)no2)cc1C#N` [Compound 46] here?
**A.** 0.5 to 5 nM

**Q.** For `CC(C)Oc1ccc(-c2nc(-c3cccc4c3CCC[C@H]4NS(=O)(=O)CCN3CC[C@@H](O)C3)no2)cc1C#N` [Compound 47], which EC50 is on record?
**A.** 0.05 to 0.5 nM

**Q.** `CC(C)Oc1ccc(-c2nc(-c3cccc4c3CCC[C@H]4NCCS(C)(=O)=O)no2)cc1C#N` [Compound 48, (R)-2-isopropoxy-5-(3-(5-((2-(methylsulfonyl)ethyl)amino)-5,6,7,8-tetrahydronaphthalen-1-yl)-1,2,4-oxadiazol-5-yl)benzonitrile] was tested. Which EC50 did it give?
**A.** 0.05 to 0.5 nM

**Q.** Which EC50 does the source give for `CC(C)Oc1ccc(-c2nc(-c3cccc4c3CCC[C@H]4NCCO)no2)cc1C#N` [Compound 50, (R)-5-(3-(5-((2-hydroxyethyl)amino)-5,6,7,8-tetrahydronaphthalen-1-yl)-1,2,4-oxadiazol-5-yl)-2-isopropoxybenzonitrile] here?
**A.** 0.05 to 0.5 nM

**Q.** Which EC50 does the source give for `CC(C)Oc1ccc(-c2nc(-c3cccc4c3CCC[C@@H]4NCCO)no2)cc1C#N` [Compound 51, (S)-5-(3-(5-((2-hydroxyethyl)amino)-5,6,7,8-tetrahydronaphthalen-1-yl)-1,2,4-oxadiazol-5-yl)-2-isopropoxybenzonitrile] here?
**A.** 0.05 to 0.5 nM

**Q.** Which EC50 does the source give for `CC(C)Oc1ccc(-c2nc(-c3cccc4c3CCC[C@H]4NCC(=O)O)no2)cc1C#N` [Compound 52, (R)-2-((5-(5-(3-cyano-4-isopropoxyphenyl)-1,2,4-oxadiazol-3-yl)-1,2,3,4-tetrahydronaphthalen-1-yl)amino) acetic acid] here?
**A.** < 0.05 nM

**Q.** How did the EC50 turn out when `CC(C)Oc1ccc(-c2nc(-c3cccc4c3CCC[C@@H]4NCC(=O)O)no2)cc1C#N` [Compound 53, (S)-2-((5-(5-(3-cyano-4-isopropoxyphenyl)-1,2,4-oxadiazol-3-yl)-1,2,3,4-tetrahydronaphthalen-1-yl)amino)acetic acid] was run?
**A.** 0.05 to 0.5 nM

**Q.** How did the EC50 turn out when `CC(C)Oc1ccc(-c2nc(-c3cccc4c3CCC[C@H]4NCC(=O)N3CCCC3)no2)cc1C#N` [Compound 54, (R)-2-isopropoxy-5-(3-(5-((2-oxo-2-(pyrrolidin-1-yl)ethyl)amino)-5,6,7,8-tetrahydronaphthalen-1-yl)-1,2,4-oxadiazol-5-yl)benzonitrile] was run?
**A.** 0.5 to 5 nM

**Q.** How did the EC50 turn out when `CC(C)Oc1ccc(-c2nc(-c3cccc4c3CCC[C@@H]4NCC(=O)N3CCCC3)no2)cc1C#N` [Compound 55, (S)-2-isopropoxy-5-(3-(5-((2-oxo-2-(pyrrolidin-1-yl)ethyl)amino)-5,6,7,8-tetrahydronaphthalen-1-yl)-1,2,4-oxadiazol-5-yl)benzonitrile] was run?
**A.** 0.05 to 0.5 nM

**Q.** Which EC50 does the source give for `CC(C)Oc1ccc(-c2ncc(-c3cccc4c3CCC4O)o2)cc1C#N` (centres unmarked) [Compound 56, 5-(5-(1-hydroxy-2,3-dihydro-1H-inden-4-yl)oxazol-2-yl)-2-isopropoxybenzonitrile] here?
**A.** 0.5 to 5 nM

**Q.** For `CC(C)Oc1ccc(-c2ncc(-c3cccc4c3CCC4NCCO)o2)cc1C#N` (centres unmarked) [Compound 57, 5-(5-(1-(2-hydroxyethylamino)-2,3-dihydro-1H-inden-4-yl)oxazol-2-yl)-2-isopropoxybenzonitrile], which EC50 is on record?
**A.** 0.5 to 5 nM

**Q.** Which EC50 does the source give for `CC(C)Oc1ccc(-c2ncc(-c3cccc4c3CCC4N[C@H](C)CO)o2)cc1C#N` (stereo partly drawn) [Compound 58, 5-(5-(1-((R)-1-hydroxypropan-2-ylamino)-2,3-dihydro-1H-inden-4-yl)oxazol-2-yl)-2-isopropoxybenzonitrile] here?
**A.** > 5 nM

**Q.** For `CCOc1ccc(Cc2nc(-c3cccc4c3CCC4O)no2)cc1OCC` (centres unmarked) [Compound 60, 4-(5-(3,4-diethoxybenzyl)-1,2,4-oxadiazol-3-yl)-2,3-dihydro-1H-inden-1-ol], which EC50 is on record?
**A.** > 5 nM
